Measurements from patent publication EP0796041B1, “NEW HERBICIDAL COMPOSITIONS” (RHONE-POULENC AGRO, priority 1994, dated 1996).

Experiments:
Test in all cases: Field trial Europe (Experiment A1), pre-emergence weed control in maize
Format in all cases: in vivo
Echinochloa crus-galli = system: Echinochloa crus-galli
Description: (§1) The following experiments were conducted on Compound A and Compound B in various field research stations in Europe during May. Compound A (as a 750 g/kg water dispersible granule formulation) and Compound B (as a 600 g/kg water dispersible granule formulation) were tested at the following dose rates (note that hereafter ai means active ingredient): Compound A : 50, 75, 100, 125 g ai/ha Compound B : 240, 360, 480, 600 g ai/ha Compound A + Compound B : 50 + 240/360/480 g ai/ha 75 + 240/360/480 g ai/ha 100 + 240/360/480 g ai/ha Trial and application conditions are given below in Table 1 (in the Tables that follow DAT means days after treatment): Table 1 [table] Weeds were drilled on the same day as maize. All trials were sprayed pre-emergence of the maize on the same day as drilling or within 2 days afterwards. Soil conditions were warm and wet, so that the crop and weeds emerged and grew quickly. Rainfall or irrigation occurred within 15 days of application. In this Table "Obs" is the observed value the value in brackets (Exp) is the expected value calculated using the Colby formula.

Amaranthus retroflexus = conditions: ALZONNE, 46DAT
Description: as §1

Polygonum lapathifolium = conditions: CHAZAY, 64DAT
Description: as §1

Setaria viridis = conditions: BOLOGNA, 54DAT
Description: as §1

## CC(C)N(C(=O)COc1nnc(C(F)(F)F)s1)c1ccc(F)cc1 [Cpd B, N-isopropyl-(5-trifluoromethyl-1,3,4-thiadiazol-2-yl)-4-(4'-fluoro-oxyacetanilide)]
Echinochloa crus-galli; ALZONNE, 46DAT, Cpd B 240 g a.i./ha
  percentage phytotoxicity Obs: 45%
Echinochloa crus-galli; ALZONNE, 46DAT, Cpd B 360 g a.i./ha
  percentage phytotoxicity Obs: 65%
Echinochloa crus-galli; ALZONNE, 46DAT, Cpd B 480 g a.i./ha
  percentage phytotoxicity Obs: 77%
Echinochloa crus-galli; ALZONNE, 46DAT, Cpd B 600 g a.i./ha
  percentage phytotoxicity Obs: 90%
Echinochloa crus-galli; BOLOGNA, 54DAT, Cpd B 240 g a.i./ha
  percentage phytotoxicity Obs: 35%
Echinochloa crus-galli; BOLOGNA, 54DAT, Cpd B 360 g a.i./ha
  percentage phytotoxicity Obs: 52%
Echinochloa crus-galli; BOLOGNA, 54DAT, Cpd B 480 g a.i./ha
  percentage phytotoxicity Obs: 65%
Echinochloa crus-galli; BOLOGNA, 54DAT, Cpd B 600 g a.i./ha
  percentage phytotoxicity Obs: 75%
Amaranthus retroflexus; Cpd B 240 g a.i./ha
  percentage phytotoxicity Obs: 30%
Amaranthus retroflexus; Cpd B 360 g a.i./ha
  percentage phytotoxicity Obs: 10%
Amaranthus retroflexus; Cpd B 480 g a.i./ha
  percentage phytotoxicity Obs: 67%
Amaranthus retroflexus; Cpd B 600 g a.i./ha
  percentage phytotoxicity Obs: 45%
Polygonum lapathifolium; Cpd B 240 g a.i./ha
  percentage phytotoxicity Obs: 25%
Polygonum lapathifolium; Cpd B 360 g a.i./ha
  percentage phytotoxicity Obs: 0%
Polygonum lapathifolium; Cpd B 480 g a.i./ha
  percentage phytotoxicity Obs: 25%
Polygonum lapathifolium; Cpd B 600 g a.i./ha
  percentage phytotoxicity Obs: 40%
Setaria viridis; Cpd B 240 g a.i./ha
  percentage phytotoxicity Obs: 85%
Setaria viridis; Cpd B 360 g a.i./ha
  percentage phytotoxicity Obs: 82%
Setaria viridis; Cpd B 480 g a.i./ha
  percentage phytotoxicity Obs: 86%
Setaria viridis; Cpd B 600 g a.i./ha
  percentage phytotoxicity Obs: 82%

## CS(=O)(=O)c1cc(C(F)(F)F)ccc1C(=O)c1cnoc1C1CC1 [Cpd A, 5-cyclopropyl-4-(2-methylsulphonyl-4-trifluoromethyl)benzoylisozaxole]
Echinochloa crus-galli; ALZONNE, 46DAT, Cpd A 50 g a.i./ha
  percentage phytotoxicity Obs: 45%
Echinochloa crus-galli; ALZONNE, 46DAT, Cpd A 75 g a.i./ha
  percentage phytotoxicity Obs: 35%
Echinochloa crus-galli; ALZONNE, 46DAT, Cpd A 100 g a.i./ha
  percentage phytotoxicity Obs: 82%
Echinochloa crus-galli; ALZONNE, 46DAT, Cpd A 125 g a.i./ha
  percentage phytotoxicity Obs: 85%
Echinochloa crus-galli; BOLOGNA, 54DAT, Cpd A 50 g a.i./ha
  percentage phytotoxicity Obs: 77%
Echinochloa crus-galli; BOLOGNA, 54DAT, Cpd A 75 g a.i./ha
  percentage phytotoxicity Obs: 91%
Echinochloa crus-galli; BOLOGNA, 54DAT, Cpd A 100 g a.i./ha
  percentage phytotoxicity Obs: 75%
Echinochloa crus-galli; BOLOGNA, 54DAT, Cpd A 125 g a.i./ha
  percentage phytotoxicity Obs: 100%
Amaranthus retroflexus; Cpd A 50 g a.i./ha
  percentage phytotoxicity Obs: 72%
Amaranthus retroflexus; Cpd A 75 g a.i./ha
  percentage phytotoxicity Obs: 70%
Amaranthus retroflexus; Cpd A 100 g a.i./ha
  percentage phytotoxicity Obs: 80%
Amaranthus retroflexus; Cpd A 125 g a.i./ha
  percentage phytotoxicity Obs: 95%
Polygonum lapathifolium; Cpd A 50 g a.i./ha
  percentage phytotoxicity Obs: 50%
Polygonum lapathifolium; Cpd A 75 g a.i./ha
  percentage phytotoxicity Obs: 90%
Polygonum lapathifolium; Cpd A 100 g a.i./ha
  percentage phytotoxicity Obs: 70%
Polygonum lapathifolium; Cpd A 125 g a.i./ha
  percentage phytotoxicity Obs: 95%
Setaria viridis; Cpd A 50 g a.i./ha
  percentage phytotoxicity Obs: 62%
Setaria viridis; Cpd A 75 g a.i./ha
  percentage phytotoxicity Obs: 82%
Setaria viridis; Cpd A 100 g a.i./ha
  percentage phytotoxicity Obs: 82%
Setaria viridis; Cpd A 125 g a.i./ha
  percentage phytotoxicity Obs: 97%
